Data reported in ChEMBL document CHEMBL4842346, “Improving the metabolic stability of antifungal compounds based on a scaffold hopping strategy: Design, synthesis, and structure-activity relationship studies of dihydrooxazole derivatives” (Eur J Med Chem, 2021).
Values after ≈ are worked out from the molar mass of the structure shown.

Assays:
Candida tropicalis = experiment: Antifungal activity against Candida tropicalis GIM2.183 assessed as inhibition of fungal growth by NCCLS protocol based method; assay type: functional
Candida albicans [1] = experiment: Antifungal activity against Candida albicans GIM2.194 assessed as inhibition of fungal growth by NCCLS protocol based method; assay type: functional
Candida albicans [2] = experiment: Antifungal activity against fluconazole and itraconazole resistant Candida albicans 17# assessed as inhibition of fungal growth by NCCLS protocol based method; assay type: functional
Candida albicans [3] = experiment: Antifungal activity against fluconazole resistant Candida albicans CaR assessed as inhibition of fungal growth by NCCLS protocol based method; assay type: functional
Pichia kudriavzevii = experiment: Antifungal activity against Candida krusei GIM2.1 assessed as inhibition of fungal growth by NCCLS protocol based method; assay type: functional
Aspergillus fumigatus = experiment: Antifungal activity against Aspergillus fumigatus CGMCC3.7795 assessed as inhibition of fungal growth by NCCLS protocol based method; assay type: functional
Candida albicans [4] = experiment: Antifungal activity against Candida albicans SC5314 assessed as inhibition of fungal growth by NCCLS protocol based method; assay type: functional
Candida parapsilosis = experiment: Antifungal activity against Candida parapsilosis GIM2.190 assessed as inhibition of fungal growth by NCCLS protocol based method; assay type: functional; conditions: Lodderomyces parapsilosis
Cryptococcus neoformans [5] = experiment: Antifungal activity against Cryptococcus neoformans CGMCC2.3161 assessed as inhibition of fungal growth by NCCLS protocol based method; assay type: functional
[6] = Metabolic stability in human liver microsomes assessed as half life at 100 uM in the presence of NADPH measured upto 60 mins by LC-MS/MS analysis; assay type: ADME, Microsome
Candida albicans [7] = experiment: Antifungal activity against Candida albicans CPCC400523 assessed as inhibition of fungal growth by NCCLS protocol based method; assay type: functional
[8] = molecular target: T1, Lanosterol 14-alpha demethylase (Candida albicans (strain SC5314 / ATCC MYA-2876) (Yeast), UniProt P10613); experiment: Inhibition of Candida albicans CYP51 assessed as lanosterol level at 0.015 ug/ml measured after 18 hrs by GC-MS analysis relative to control; parameters: scale not given: the % may be the effect or the level left; conditions: at 0.015 µg/mL
T1 sequence (P10613 whole entry): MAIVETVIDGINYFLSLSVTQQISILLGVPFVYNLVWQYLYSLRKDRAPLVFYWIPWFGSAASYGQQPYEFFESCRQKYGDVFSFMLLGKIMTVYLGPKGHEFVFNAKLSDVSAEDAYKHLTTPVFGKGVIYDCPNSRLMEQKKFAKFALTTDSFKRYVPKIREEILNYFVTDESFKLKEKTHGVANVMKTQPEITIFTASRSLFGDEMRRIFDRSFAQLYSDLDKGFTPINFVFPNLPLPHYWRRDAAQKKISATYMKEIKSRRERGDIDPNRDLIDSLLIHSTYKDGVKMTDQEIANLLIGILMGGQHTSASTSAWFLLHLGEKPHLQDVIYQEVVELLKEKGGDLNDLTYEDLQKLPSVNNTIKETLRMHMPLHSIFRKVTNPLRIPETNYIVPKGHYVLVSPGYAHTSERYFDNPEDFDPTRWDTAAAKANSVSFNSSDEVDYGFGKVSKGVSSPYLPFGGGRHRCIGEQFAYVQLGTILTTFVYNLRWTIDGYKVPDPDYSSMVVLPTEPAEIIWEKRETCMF

[9] = Metabolic stability in human liver microsomes assessed as compound remaining at 100 uM measured after 60 mins in the presence of NADPH by LC-MS/MS analysis; assay type: ADME, Microsome; conditions: read-out: Stabilty
[10] = Metabolic stability in human plasma assessed as half life at 100 uM measured after 60 mins by LC-MS/MS analysis; assay type: ADME, cell-free
[11] = Metabolic stability in human plasma assessed as parent compound remaining at 100 uM measured after 60 mins by LC-MS/MS analysis; assay type: ADME, cell-free; conditions: read-out: Stabilty
[12] = Metabolic stability in human plasma assessed as parent compound remaining at 100 uM measured after 120 mins by LC-MS/MS analysis; assay type: ADME, cell-free; conditions: 2 h
Cytochrome P450 1A2 = molecular target: T2, Cytochrome P450 1A2 (Homo sapiens, UniProt P05177); experiment: Inhibition of CYP1A2 in human liver microsome incubated for 10 mins in the presence of NADPH by LC-MS/MS analysis; assay type: ADME, microsomes
T2 sequence (P05177 whole entry): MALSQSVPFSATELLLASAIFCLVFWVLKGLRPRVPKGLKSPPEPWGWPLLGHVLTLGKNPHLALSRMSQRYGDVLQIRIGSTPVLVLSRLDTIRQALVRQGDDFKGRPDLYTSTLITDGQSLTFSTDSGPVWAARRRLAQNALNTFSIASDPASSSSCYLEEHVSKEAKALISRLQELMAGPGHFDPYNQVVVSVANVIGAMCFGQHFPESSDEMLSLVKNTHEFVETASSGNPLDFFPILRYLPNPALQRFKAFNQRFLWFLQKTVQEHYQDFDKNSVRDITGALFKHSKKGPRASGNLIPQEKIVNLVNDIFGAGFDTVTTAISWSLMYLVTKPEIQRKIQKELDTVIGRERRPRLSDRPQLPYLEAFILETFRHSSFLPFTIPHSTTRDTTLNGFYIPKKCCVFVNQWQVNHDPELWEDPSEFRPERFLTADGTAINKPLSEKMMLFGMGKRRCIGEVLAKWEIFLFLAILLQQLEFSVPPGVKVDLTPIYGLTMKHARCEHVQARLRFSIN

Cytochrome P450 2C19 = Cytochrome P450 2C19 (Homo sapiens, UniProt P33261); experiment: Inhibition of CYP2C19 in human liver microsome incubated for 10 mins in the presence of NADPH by LC-MS/MS analysis; assay type: ADME, microsomes
Cytochrome P450 2C19, sequence (P33261 whole entry): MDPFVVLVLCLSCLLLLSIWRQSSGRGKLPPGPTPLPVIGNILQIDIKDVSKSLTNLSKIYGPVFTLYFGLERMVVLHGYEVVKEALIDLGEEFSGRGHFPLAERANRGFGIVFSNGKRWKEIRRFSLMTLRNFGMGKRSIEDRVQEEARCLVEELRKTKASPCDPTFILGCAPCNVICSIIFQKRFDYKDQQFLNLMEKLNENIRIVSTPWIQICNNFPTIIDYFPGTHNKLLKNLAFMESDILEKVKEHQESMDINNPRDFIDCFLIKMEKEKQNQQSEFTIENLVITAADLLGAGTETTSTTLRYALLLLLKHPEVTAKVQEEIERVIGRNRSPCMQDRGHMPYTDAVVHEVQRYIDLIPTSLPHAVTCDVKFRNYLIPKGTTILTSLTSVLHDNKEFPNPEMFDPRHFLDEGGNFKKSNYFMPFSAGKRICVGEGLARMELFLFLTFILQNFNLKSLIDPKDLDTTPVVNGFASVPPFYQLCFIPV

Cytochrome P450 2D6 = Cytochrome P450 2D6 (Homo sapiens, UniProt P10635); experiment: Inhibition of CYP2D6 in human liver microsome incubated for 10 mins in the presence of NADPH by LC-MS/MS analysis; assay type: ADME, microsomes
Cytochrome P450 2D6, sequence (P10635 whole entry): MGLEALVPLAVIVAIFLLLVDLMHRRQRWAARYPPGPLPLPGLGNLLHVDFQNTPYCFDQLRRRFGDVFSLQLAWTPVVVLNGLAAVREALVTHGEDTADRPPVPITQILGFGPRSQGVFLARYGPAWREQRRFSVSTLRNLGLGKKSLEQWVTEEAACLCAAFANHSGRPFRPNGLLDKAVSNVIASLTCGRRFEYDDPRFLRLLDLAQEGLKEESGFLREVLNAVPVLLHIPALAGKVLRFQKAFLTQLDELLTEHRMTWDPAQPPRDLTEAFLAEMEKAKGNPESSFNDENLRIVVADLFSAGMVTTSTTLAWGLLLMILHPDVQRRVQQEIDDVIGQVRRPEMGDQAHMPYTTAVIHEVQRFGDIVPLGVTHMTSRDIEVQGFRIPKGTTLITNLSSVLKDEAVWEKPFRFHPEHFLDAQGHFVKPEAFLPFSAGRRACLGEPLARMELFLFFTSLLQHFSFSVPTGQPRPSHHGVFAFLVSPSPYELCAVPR

Cytochrome P450 3A4 = Cytochrome P450 3A4 (Homo sapiens, UniProt P08684); experiment: Inhibition of CYP3A4 in human liver microsome incubated for 10 mins in the presence of NADPH by LC-MS/MS analysis; assay type: ADME, microsomes
Cytochrome P450 3A4, sequence (P08684 whole entry): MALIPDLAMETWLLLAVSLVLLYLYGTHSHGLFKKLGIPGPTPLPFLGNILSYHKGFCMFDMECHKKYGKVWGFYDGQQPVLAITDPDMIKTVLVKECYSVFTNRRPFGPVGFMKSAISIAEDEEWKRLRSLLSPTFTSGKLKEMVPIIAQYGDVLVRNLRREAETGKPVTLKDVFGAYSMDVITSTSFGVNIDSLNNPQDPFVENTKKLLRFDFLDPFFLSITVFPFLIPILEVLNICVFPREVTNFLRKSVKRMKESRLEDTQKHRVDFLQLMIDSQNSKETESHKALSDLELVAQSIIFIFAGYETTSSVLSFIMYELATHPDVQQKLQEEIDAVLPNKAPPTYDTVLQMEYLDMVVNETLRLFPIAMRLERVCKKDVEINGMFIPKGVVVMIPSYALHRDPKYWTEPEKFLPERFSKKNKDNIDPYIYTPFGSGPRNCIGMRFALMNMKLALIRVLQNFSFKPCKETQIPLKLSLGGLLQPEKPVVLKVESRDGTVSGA

Cytochrome P450 2C9 = Cytochrome P450 2C9 (Homo sapiens, UniProt P11712); experiment: Inhibition of CYP2C9 in human liver microsome incubated for 10 mins in the presence of NADPH by LC-MS/MS analysis; assay type: ADME, microsomes
Cytochrome P450 2C9, sequence (P11712 whole entry): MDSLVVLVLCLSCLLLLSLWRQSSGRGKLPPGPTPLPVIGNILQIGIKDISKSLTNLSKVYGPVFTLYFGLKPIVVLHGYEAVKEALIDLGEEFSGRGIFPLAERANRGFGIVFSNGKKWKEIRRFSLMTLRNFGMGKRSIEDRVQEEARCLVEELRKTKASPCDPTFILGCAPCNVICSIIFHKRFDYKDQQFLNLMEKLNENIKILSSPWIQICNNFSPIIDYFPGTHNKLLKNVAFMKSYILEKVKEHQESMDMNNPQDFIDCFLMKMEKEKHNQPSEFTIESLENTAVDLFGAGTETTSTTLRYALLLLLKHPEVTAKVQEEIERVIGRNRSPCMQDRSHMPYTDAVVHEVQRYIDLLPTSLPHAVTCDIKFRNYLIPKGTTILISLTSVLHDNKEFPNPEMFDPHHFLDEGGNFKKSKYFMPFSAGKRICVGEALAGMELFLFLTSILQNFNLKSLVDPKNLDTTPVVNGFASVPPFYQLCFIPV

[13] = Intrinsic hepatic clearance in human liver microsomes at 100 uM in the presence of NADPH measured up to 60 mins by LC-MS/MS analysis; assay type: ADME, Microsome; conditions: 1 h
[14] = molecular target: T1, Lanosterol 14-alpha demethylase; experiment: Inhibition of Candida albicans CYP51 assessed as unknown sterol level at 0.015 ug/ml measured after 18 hrs by GC-MS analysis relative to control; parameters: scale not given: the % may be the effect or the level left; conditions: at 0.015 µg/mL
[15] = Metabolic stability in human liver microsomes assessed as compound remaining at 100 uM measured after 60 mins in the absence of NADPH by LC-MS/MS analysis; assay type: ADME, Microsome; conditions: read-out: Stabilty
[16] = molecular target: T1, Lanosterol 14-alpha demethylase; experiment: Inhibition of Candida albicans CYP51 assessed as 14alpha-methylergosta-8,24(28)-dien3beta-6alpha-diol level at 0.015 ug/ml measured after 18 hrs by GC-MS analysis relative to control; parameters: scale not given: the % may be the effect or the level left; conditions: at 0.015 µg/mL
[17] = molecular target: T1, Lanosterol 14-alpha demethylase; experiment: Inhibition of Candida albicans CYP51 assessed as eburicol level at 0.015 ug/ml measured after 18 hrs by GC-MS analysis relative to control; parameters: scale not given: the % may be the effect or the level left; conditions: at 0.015 µg/mL
[18] = molecular target: T1, Lanosterol 14-alpha demethylase; experiment: Inhibition of Candida albicans CYP51 assessed as ergosterol level at 0.015 ug/ml measured after 18 hrs by GC-MS analysis relative to control; parameters: scale not given: the % may be the effect or the level left; conditions: at 0.015 µg/mL
[19] = Intrinsic microsomal clearance in human liver microsomes at 100 uM in the presence of NADPH measured up to 60 mins by LC-MS/MS analysis; assay type: ADME, Microsome; conditions: read-out: CLH
[20] = molecular target: T1, Lanosterol 14-alpha demethylase; experiment: Inhibition of Candida albicans CYP51 assessed as ergosterol level at 0.25 ug/ml measured after 18 hrs by GC-MS analysis relative to control; parameters: scale not given: the % may be the effect or the level left; conditions: at 0.25 µg/mL
Cryptococcus neoformans [21] = experiment: Antifungal activity against Cryptococcus neoformans GIM2.209 assessed as inhibition of fungal growth by NCCLS protocol based method; assay type: functional
[22] = molecular target: T1, Lanosterol 14-alpha demethylase; experiment: Inhibition of Candida albicans CYP51 assessed as unknown sterol level at 0.25 ug/ml measured after 18 hrs by GC-MS analysis relative to control; parameters: scale not given: the % may be the effect or the level left; conditions: at 0.25 µg/mL
[23] = molecular target: T1, Lanosterol 14-alpha demethylase; experiment: Inhibition of Candida albicans CYP51 assessed as eburicol level at 0.25 ug/ml measured after 18 hrs by GC-MS analysis relative to control; parameters: scale not given: the % may be the effect or the level left; conditions: at 0.25 µg/mL
[24] = molecular target: T1, Lanosterol 14-alpha demethylase; experiment: Inhibition of Candida albicans CYP51 assessed as lanosterol level at 0.25 ug/ml measured after 18 hrs by GC-MS analysis relative to control; parameters: scale not given: the % may be the effect or the level left; conditions: at 0.25 µg/mL
[25] = molecular target: T1, Lanosterol 14-alpha demethylase; experiment: Inhibition of Candida albicans CYP51 assessed as 14alpha-methylergosta-8,24(28)-dien3beta-6alpha-diol level at 0.25 ug/ml measured after 18 hrs by GC-MS analysis relative to control; parameters: scale not given: the % may be the effect or the level left; conditions: at 0.25 µg/mL

Structure (SMILES) | MIC (Candida tropicalis) [µg/mL] | MIC (Candida albicans [1]) [µg/mL] | MIC (Candida albicans [2]) [µg/mL] | MIC (Candida albicans [3]) [µg/mL] | MIC (Pichia kudriavzevii) [µg/mL] | MIC (Aspergillus fumigatus) [µg/mL] | MIC (Candida albicans [4]) [µg/mL] | MIC (Candida parapsilosis) [µg/mL] | MIC (Cryptococcus neoformans [5]) [µg/mL] | half-life at 100 µM [6] [min] | MIC (Candida albicans [7]) [µg/mL] | other results
Fc1ccc(C2(Cn3cncn3)COC(c3ccc(-c4ccccc4F)cc3)=N2)c(F)c1 (stereo not drawn) | 0.06 (≈ 0.138 µM) | 0.06 (≈ 0.138 µM) | > 64 | 0.5 (≈ 1.15 µM) | 0.25 (≈ 0.575 µM) | > 64 | < 0.03 | 4 (≈ 9.21 µM) | – | – | – | –
c1ccc(-c2ccc(C3=N[C@@H](Cn4ccnc4)CO3)cc2)cc1 | – | – | – | – | – | 1 (≈ 3.3 µM) | 1 (≈ 3.3 µM) | – | > 64 | 23.2 | 8 (≈ 26.4 µM) | –
Fc1ccc(C2(Cn3cncn3)COC(c3ccc(-c4cccc(F)c4)cc3)=N2)cc1 (stereo not drawn) | 0.06 (≈ 0.144 µM) | < 0.03 | > 64 | 0.5 (≈ 1.2 µM) | 0.25 (≈ 0.6 µM) | > 64 | < 0.03 | 8 (≈ 19.2 µM) | – | 59.1 | – | Activity [8]: 18.96%; remaining at 1 h, 100 µM [9]: 47.1%; half-life at 100 µM [10]: > 288 min; remaining at 1 h, 100 µM [11]: 98.7%; Stabilty [12]: 115.8%; IC50 (Cytochrome P450 1A2): 21.2 µM; IC50 (Cytochrome P450 2C19): 1300 nM; IC50 (Cytochrome P450 2D6): 40.1 µM; IC50 (Cytochrome P450 3A4): 15.2 µM; IC50 (Cytochrome P450 2C9): 3.8 µM; CLH [13]: 21.1 µL/min/kg; Activity [14]: 1.73%; remaining at 1 h, 100 µM [15]: 79.9%; Activity [16]: 34.14%; Activity [17]: 7.04%; Activity [18]: 35.8%; microsomal CLint at 100 µM [19]: 23.5 µL/min/mg
Fc1cccc(-c2ccc(C3=NC(Cn4cncn4)(c4ccc(F)cc4F)CO3)cc2)c1 (stereo not drawn) | 0.06 (≈ 0.138 µM) | 0.06 (≈ 0.138 µM) | > 64 | 0.5 (≈ 1.15 µM) | 0.25 (≈ 0.575 µM) | > 64 | < 0.03 | > 64 | – | – | – | –
OC(Cn1cncn1)(Cn1cncn1)c1ccc(F)cc1F [FLUCONAZOLE] | 1 (≈ 3.27 µM) | 1 (≈ 3.27 µM) | > 64 | > 64 | 8 (≈ 26.1 µM) | > 64 | 0.5 (≈ 1.63 µM) | 2 (≈ 6.53 µM) | 4 (≈ 13.1 µM) | – | 1 (≈ 3.27 µM) | Activity [20]: 34.27%; MIC (Cryptococcus neoformans [21]): 4 µg/mL (≈ 13.1 µM); Activity [22]: 1.91%; Activity [23]: 7.57%; Activity [24]: 15.13%; Activity [25]: 30.66%
